Tests used:
[1] = Pharmacokinetic Test in Rats (Inhalation Administration); conditions: rat, in vivo, inhaled or intranasal, male SD rats, single dose 0.03 mg/kg; for Cmax / AUC(0-t): lung tissue; for AUC(0-t): read-out: Lung AUC0-t; for Kp: read-out: Lung AUC0-t/plasma AUC0-t
Protocol: 4: Pharmacokinetic Test in Rats (Inhalation Administration)
The samples were analyzed quantitatively by LC-MS/MS.

[2] = 12-week, PATENT-1, riociguat group, cited from earlier work

Cmax [1]	AUC(0-t) [1]	Kp [1]	SMILES	anemia ([2]; placebo 2%)	gastroesophageal reflux disease ([2]; placebo 2%)	diarrhea ([2]; placebo 8%)
2540 ng/mL	5430 ng·h/mL		CC(C)(Cc1csc(C2(C)C(=O)Nc3nc(-n4nc(Cc5ccccc5F)c5ncc(F)cc54)nc(N)c32)n1)C(=O)O (single isomer, unassigned) [Compound 35-1]			
4070 ng/mL	10100 ng·h/mL	49.1	CC(C)(Cc1csc(C2(C)C(=O)Nc3nc(-n4nc(Cc5cccc(F)c5F)c5ncc(F)cc54)nc(N)c32)n1)C(=O)O (single isomer, unassigned) [Compound 36-1]			
1730 ng/mL	3280 ng·h/mL		CC(C)(Cc1csc(C2(C)C(=O)Nc3nc(-n4nc(CCC(F)(F)C(F)(F)F)c5ncc(F)cc54)nc(N)c32)n1)C(=O)O (single isomer, unassigned) [Compound 37-1]			
2980 ng/mL	3630 ng·h/mL	65	CC(C)(Cc1csc([C@]2(C)C(=O)Nc3nc(-c4nc(CCC(F)(F)C(F)(F)F)n5ncccc45)nc(N)c32)n1)C(=O)O [Compound 3-1]			
2820 ng/mL	5170 ng·h/mL	659	CC(C)(Cc1cccc([C@@]2(C)C(=O)Nc3nc(-c4nn(CCC(F)(F)C(F)(F)F)c5cc(Cl)cnc45)nc(N)c32)c1)C(=O)O [Compound 6-1]			
2840 ng/mL	12200 ng·h/mL	245	CC(C)(Cc1csc([C@]2(C)C(=O)Nc3nc(-c4nc(Cc5ccccc5F)n5ncccc45)nc(N)c32)n1)C(=O)O [Compound 19-1]			
1180 ng/mL	608 ng·h/mL	97.9	CC(C)(Cc1csc([C@]2(C)C(=O)Nc3nc(-n4c(=O)n(CCC(F)(F)C(F)(F)F)c5cc(F)ccc54)nc(N)c32)n1)C(=O)O [Compound 31-1]			
1740 ng/mL		83.6	CC(C)(Cc1csc([C@]2(C)C(=O)Nc3nc(-n4c(=O)n(Cc5ccccc5F)c5cc(F)ccc54)nc(N)c32)n1)C(=O)O [Compound 38-1]			
2850 ng/mL	4500 ng·h/mL	43.4	CC(C)(Cc1csc([C@]2(C)C(=O)Nc3nc(-c4nc(CCC(F)(F)C(F)(F)F)n5cc(F)ccc45)nc(N)c32)n1)C(=O)O [Compound 45-1]			
273 ng/mL	220 ng·h/mL		CC(C)(Cc1csc([C@]2(C)C(=O)Nc3nc(-c4nn(CCC(F)(F)C(F)(F)F)c5ncccc45)nc(N)c32)n1)C(=O)O [Control compound 1, reference compound]			
			COC(=O)N(C)c1c(N)nc(-c2nn(Cc3ccccc3F)c3ncccc23)nc1N [riociguat, Riociguat]	7%	5%	12%

SMILES	Cmax [1]	AUC(0-t) [1]	Kp [1]	anemia ([2]; placebo 2%)	gastroesophageal reflux disease ([2]; placebo 2%)	diarrhea ([2]; placebo 8%)
CC(C)(Cc1csc([C@]2(C)C(=O)Nc3nc(-n4nc(CCC(F)(F)C(F)(F)F)c5cc(Cl)ccc54)nc(N)c32)n1)C(=O)O (single isomer, unassigned) [Compound 4-1]	2350 ng/mL	2460 ng·h/mL	77.1			
CC(C)(Cc1csc([C@]2(C)C(=O)Nc3nc(-n4nc(CCC(F)(F)C(F)(F)F)c5cc(F)ccc54)nc(N)c32)n1)C(=O)O [Compound 17-1]	1750 ng/mL	2020 ng·h/mL	48.4			
